Experiments:
[1] = Stability in human hepatocytes assessed as parent compound remaining at 10 uM incubated for 120 mins; format: ADME, cell-based, Hepatocyte; details: read-out: Stability
[2] = Oral bioavailability in rhesus monkey at 3 mg/kg; format: ADME, organism-based, Macaca mulatta; details: in vivo
[3] = Half life in rhesus monkey at 1 mg/kg, iv; format: ADME, organism-based, Macaca mulatta; details: in vivo
[4] = Ratio of drug level in human blood to plasma; format: ADME, cell-free; details: whole blood
[5] = Oral bioavailability in Beagle dog at 3 mg/kg; format: ADME, organism-based, Canis lupus familiaris; details: in vivo
[6] = tested on: Rattus norvegicus; test: Increase in O-protein AUC in rat brain at 10 mg/kg, po measured upto 24 hrs; format: ADME, organism-based; details: in vivo
[7] = AUC (0 to 24 hrs) in rat assessed as change in histomorphology at 1000 mg/kg, po administered for 7 days and measured on day 8; format: ADME, organism-based; design: time < 24 hr, dose 1000 mg/kg, route oral; details: in vivo
[8] = Oral bioavailability in Wistar Han rat at 10 mg/kg; format: ADME, organism-based; details: in vivo
[9] = Toxicity in rat assessed as change in serum chemistry at 1000 mg/kg, po administered for 7 days and measured on day 8; format: organism-based; details: in vivo, 168 h
[10] = Toxicity in rat assessed as change in physical signs at 1000 mg/kg, po administered for 7 days and measured on day 8; format: organism-based; details: in vivo, 168 h
[11] = Half life in Beagle dog at 1 mg/kg, iv; format: ADME, organism-based, Canis lupus familiaris; details: in vivo
[12] = Protein binding in human plasma; format: ADME, cell-free; details: read-out: PPB
[13] = Stability in monkey hepatocytes assessed as parent compound remaining at 10 uM incubated for 120 mins; format: ADME, cell-based, Macaca mulatta, Hepatocyte; details: rhesus monkey, read-out: Stability
[14] = molecular target: Cytochrome P450 3A4 (Homo sapiens, UniProt P08684); test: Induction of CYP3A4 in human hepatocytes upto 20 uM; format: ADME, cell-based
Cytochrome P450 3A4, sequence (P08684 whole entry): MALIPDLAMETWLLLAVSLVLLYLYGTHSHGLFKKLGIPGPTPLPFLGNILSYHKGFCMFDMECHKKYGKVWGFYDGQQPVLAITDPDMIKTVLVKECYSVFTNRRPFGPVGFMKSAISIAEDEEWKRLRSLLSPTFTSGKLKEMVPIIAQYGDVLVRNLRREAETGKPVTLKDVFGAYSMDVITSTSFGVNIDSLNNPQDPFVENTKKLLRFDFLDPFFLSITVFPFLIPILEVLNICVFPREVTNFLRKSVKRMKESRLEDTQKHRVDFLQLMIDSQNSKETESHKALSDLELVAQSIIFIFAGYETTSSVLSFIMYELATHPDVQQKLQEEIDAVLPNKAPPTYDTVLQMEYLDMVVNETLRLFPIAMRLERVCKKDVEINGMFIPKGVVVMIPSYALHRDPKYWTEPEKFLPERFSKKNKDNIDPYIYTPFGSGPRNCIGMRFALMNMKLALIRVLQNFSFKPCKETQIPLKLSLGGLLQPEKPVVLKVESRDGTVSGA

[15] = tested on: Rattus norvegicus; test: Elevation of O-protein in rat brain at 3 mg/kg, po measured after 8 hrs relative to control; format: functional
[16] = tested on: Canis familiaris; test: Hemodynamic activity in telemetered dog assessed as change in EKG parameter at 300 mg/kg, po; format: ADME, organism-based, Canis lupus familiaris; details: in vivo
[17] = Fraction unbound in human plasma at 2.5 uM by equilibrium dialysis; format: ADME, cell-free
[18] = Protein binding in monkey plasma; format: ADME, cell-free, Macaca mulatta; details: rhesus monkey, read-out: PPB
[19] = Volume of distribution at steady state in Wistar Han rat at 2 mg/kg, iv or 10 mg/kg, po; format: ADME, organism-based; details: in vivo, read-out: Vdss
[20] = Ratio of drug level in monkey blood to plasma; format: ADME, cell-free, Macaca mulatta; details: rhesus monkey, whole blood
[21] = molecular target: T1, Protein O-GlcNAcase (Rattus norvegicus, UniProt Q8VIJ5); test: Inhibition of OGA in rat PC12 cells assessed as OGlcNAcylated protein level incubated for 24 hrs by ELISA; format: cell-based
T1 sequence (Q8VIJ5 whole entry): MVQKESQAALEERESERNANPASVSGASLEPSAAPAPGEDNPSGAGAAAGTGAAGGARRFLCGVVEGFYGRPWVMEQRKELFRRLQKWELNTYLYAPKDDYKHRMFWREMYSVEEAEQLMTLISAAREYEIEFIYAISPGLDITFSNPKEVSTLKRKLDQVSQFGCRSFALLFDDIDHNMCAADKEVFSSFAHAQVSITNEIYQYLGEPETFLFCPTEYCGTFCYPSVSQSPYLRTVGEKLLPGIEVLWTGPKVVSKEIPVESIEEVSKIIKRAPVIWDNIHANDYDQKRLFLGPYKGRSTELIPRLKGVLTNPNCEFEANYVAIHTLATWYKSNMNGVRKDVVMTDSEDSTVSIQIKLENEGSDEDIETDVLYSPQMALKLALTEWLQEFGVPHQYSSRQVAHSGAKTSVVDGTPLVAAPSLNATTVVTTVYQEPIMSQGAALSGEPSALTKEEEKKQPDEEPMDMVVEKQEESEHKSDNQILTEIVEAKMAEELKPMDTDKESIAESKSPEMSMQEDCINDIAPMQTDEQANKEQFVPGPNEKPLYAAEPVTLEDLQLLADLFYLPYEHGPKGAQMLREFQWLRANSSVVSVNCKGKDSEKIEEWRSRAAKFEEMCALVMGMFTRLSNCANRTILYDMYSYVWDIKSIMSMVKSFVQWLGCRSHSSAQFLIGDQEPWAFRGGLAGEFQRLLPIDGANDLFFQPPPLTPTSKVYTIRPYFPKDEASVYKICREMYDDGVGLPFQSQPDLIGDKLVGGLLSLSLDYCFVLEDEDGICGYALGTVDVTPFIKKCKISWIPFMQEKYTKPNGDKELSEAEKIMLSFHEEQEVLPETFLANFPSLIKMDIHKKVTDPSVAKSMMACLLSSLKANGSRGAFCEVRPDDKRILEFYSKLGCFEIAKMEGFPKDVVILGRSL

[22] = Volume of distribution at steady state in rhesus monkey at 1 mg/kg, iv or 3 mg/kg, po; format: ADME, organism-based, Macaca mulatta; details: in vivo, read-out: Vdss
[23] = molecular target: T2, Cytochrome P450 2B6 (Homo sapiens, UniProt P20813); test: Induction of CYP2B6 in human hepatocytes upto 20 uM; format: ADME, cell-based
T2 sequence (P20813 whole entry): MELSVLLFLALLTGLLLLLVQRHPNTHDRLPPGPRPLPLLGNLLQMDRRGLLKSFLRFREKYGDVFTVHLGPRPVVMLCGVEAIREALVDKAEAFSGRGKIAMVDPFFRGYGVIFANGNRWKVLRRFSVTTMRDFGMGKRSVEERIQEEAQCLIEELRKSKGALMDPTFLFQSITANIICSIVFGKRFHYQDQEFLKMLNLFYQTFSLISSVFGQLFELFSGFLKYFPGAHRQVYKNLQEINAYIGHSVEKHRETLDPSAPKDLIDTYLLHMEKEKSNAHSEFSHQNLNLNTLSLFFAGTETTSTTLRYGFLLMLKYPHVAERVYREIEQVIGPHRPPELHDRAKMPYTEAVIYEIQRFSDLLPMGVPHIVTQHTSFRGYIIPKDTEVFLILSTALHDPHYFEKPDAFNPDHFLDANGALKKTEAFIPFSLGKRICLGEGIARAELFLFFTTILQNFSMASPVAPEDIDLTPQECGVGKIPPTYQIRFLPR

[24] = Drug uptake in rat brain at 3 mg/kg, po measured after 24 hrs; format: ADME, organism-based; details: in vivo
[25] = Half life in Wistar Han rat at 2 mg/kg, iv; format: ADME, organism-based; details: in vivo
[26] = Cmax in telemetered rat at 380 mg/kg, po; format: ADME, organism-based; design: dose 380 mg/kg, route oral; details: in vivo
[27] = AUCN in rhesus monkey at 3 mg/kg, po; format: ADME, organism-based, Macaca mulatta; details: in vivo
[28] = Tmax in rat brain at 10 mg/kg, po measured upto 24 hrs; format: ADME, organism-based
[29] = Stability in rat hepatocytes assessed as parent compound remaining at 10 uM incubated for 120 mins; format: ADME, cell-based, Hepatocyte; details: read-out: Stability
[30] = molecular target: Cav1.2 (Homo sapiens, UniProt Q13936); test: Inhibition of Cav1.2 (unknown origin) at 30 uM
Cav1.2, sequence (Q13936 whole entry): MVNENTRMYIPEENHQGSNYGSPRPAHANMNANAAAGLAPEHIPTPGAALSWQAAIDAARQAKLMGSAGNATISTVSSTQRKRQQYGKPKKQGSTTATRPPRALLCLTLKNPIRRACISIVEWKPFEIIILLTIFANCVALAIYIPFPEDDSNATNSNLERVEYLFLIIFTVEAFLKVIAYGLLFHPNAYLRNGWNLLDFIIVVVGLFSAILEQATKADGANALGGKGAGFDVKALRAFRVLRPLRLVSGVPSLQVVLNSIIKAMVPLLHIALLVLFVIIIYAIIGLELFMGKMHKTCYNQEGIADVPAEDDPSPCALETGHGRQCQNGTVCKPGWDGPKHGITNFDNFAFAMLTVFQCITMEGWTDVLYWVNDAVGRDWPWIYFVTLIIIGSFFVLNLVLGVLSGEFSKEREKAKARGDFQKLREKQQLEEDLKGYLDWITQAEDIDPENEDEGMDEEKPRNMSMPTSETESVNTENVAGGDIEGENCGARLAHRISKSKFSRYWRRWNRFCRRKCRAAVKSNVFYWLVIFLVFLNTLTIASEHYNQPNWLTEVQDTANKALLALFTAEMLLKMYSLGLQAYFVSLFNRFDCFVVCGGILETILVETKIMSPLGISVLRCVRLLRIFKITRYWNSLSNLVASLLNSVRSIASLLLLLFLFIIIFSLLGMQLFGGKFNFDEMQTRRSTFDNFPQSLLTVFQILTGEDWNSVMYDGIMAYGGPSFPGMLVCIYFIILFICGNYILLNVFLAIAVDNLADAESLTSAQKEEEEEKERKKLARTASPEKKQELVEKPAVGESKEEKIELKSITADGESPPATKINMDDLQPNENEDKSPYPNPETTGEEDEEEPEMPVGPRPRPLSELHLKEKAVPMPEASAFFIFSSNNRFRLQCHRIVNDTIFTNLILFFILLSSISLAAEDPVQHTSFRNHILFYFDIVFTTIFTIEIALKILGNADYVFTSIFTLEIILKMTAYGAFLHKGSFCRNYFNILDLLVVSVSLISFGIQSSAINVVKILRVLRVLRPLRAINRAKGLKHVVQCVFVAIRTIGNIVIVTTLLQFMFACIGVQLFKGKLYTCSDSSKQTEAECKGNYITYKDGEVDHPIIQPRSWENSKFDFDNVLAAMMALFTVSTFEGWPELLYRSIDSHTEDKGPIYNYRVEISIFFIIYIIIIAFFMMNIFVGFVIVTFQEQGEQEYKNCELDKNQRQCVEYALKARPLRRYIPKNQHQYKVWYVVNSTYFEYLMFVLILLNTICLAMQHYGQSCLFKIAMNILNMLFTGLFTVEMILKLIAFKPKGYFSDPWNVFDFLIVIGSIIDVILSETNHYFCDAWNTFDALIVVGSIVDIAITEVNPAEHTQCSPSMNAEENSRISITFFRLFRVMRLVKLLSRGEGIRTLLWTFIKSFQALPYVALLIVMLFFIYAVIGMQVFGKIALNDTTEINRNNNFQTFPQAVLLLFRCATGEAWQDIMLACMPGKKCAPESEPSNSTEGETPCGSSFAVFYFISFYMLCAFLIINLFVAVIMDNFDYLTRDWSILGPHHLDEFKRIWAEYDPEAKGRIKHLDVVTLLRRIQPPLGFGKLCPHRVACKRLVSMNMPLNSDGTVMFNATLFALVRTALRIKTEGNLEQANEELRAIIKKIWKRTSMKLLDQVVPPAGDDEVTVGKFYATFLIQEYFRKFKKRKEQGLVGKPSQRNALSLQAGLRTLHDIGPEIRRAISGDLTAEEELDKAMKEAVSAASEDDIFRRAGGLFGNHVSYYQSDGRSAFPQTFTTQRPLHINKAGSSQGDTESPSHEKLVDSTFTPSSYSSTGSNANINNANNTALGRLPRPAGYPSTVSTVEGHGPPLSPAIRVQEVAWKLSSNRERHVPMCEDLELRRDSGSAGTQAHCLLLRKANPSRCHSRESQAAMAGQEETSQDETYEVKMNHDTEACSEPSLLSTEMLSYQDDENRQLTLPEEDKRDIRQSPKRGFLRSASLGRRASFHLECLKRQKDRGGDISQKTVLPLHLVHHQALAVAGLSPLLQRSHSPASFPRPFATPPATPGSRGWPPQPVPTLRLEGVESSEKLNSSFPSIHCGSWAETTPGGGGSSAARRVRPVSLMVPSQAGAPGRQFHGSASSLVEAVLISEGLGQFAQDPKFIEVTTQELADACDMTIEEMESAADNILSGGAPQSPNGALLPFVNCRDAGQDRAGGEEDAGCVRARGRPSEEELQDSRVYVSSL

remaining at 2 h, 10 µM [1]: 90%
bioavailability [2]: 9%
half-life [3]: 1.4 h
blood plasma ratio [4]: 0.9 to 1.1
bioavailability [5]: 90%
fold change (FC) [6]: 31.42
AUC at 24 h [7]: 1340 µM·h
bioavailability [8]: 80%
half-life [11]: 2.3 h
fraction unbound [12]: > 0.95
remaining at 2 h, 10 µM [13]: 58%
Activity [14]: Not Active
fraction unbound at 2.5 µM [17]: 0.99
fraction unbound [18]: > 0.95
Vd [19]: 3.7 L/kg
blood plasma ratio [20]: 0.9 to 1.1
EC50 [21]: 52.7 nM
Vd [22]: 3.1 L/kg
Activity [23]: Not Active
Drug uptake [24]: 0.088 nmol/g
half-life [25]: 1.9 h
AUC/dose [27]: 0.61 µM·kg·h/mg
Tmax [28]: 8 h
remaining at 2 h, 10 µM [29]: 96%
SMILES: CCNC1=N[C@@H]2[C@@H](O)[C@H](O)[C@@H](C(F)F)O[C@@H]2S1
Activity [9]: Non-Toxic
Activity [10]: Non-Toxic
fold change (FC) [15]: 2.06
Activity [16]: Non-Toxic
Cmax [26]: 110 µM
inhibition at 30 µM [30]: < 50%
